Assay results taken from patent publication US5521061A, “Enhancement of probe signal in nucleic acid-mediated in-situ hybridization studies” (Aprogenex, Inc., priority 1992, dated 1996).

What was measured:
Hepg 2 cells = test: Slide in situ hybridization, DMSO plus one additional compound (Example 2), HYR probe; type: cell-based, human; details: 10% (v/v) additional compound with 9% DMSO; slide rating x 0.5, water control = 2; average of four experiments
Description: Slide in situ Cell Preparation and Hybridization Protocol
1) Cells were suspended in a fixative (3 vol ethanol plus 1 vol methanol) and transferred to glass slides by centrifugation using a Cytospin apparatus.
2) The assay solution (consisting of the hybridization cocktail HC alone or mixed with a compound or compounds being tested as an enhancer) with the DNA probe (25 ul) was placed over the cells and covered with a coverslip.
3) The slide was heated at 90° C. for 5 minutes for DNA denaturation, then incubated at 46° C. for 30 minutes for hybridization.
4) Cells were washed once with the wash solution #1, which was equilibrated at 42° C. Then cells were washed ten times with wash solution #2, which was equilibrated at 42° C.
5) Mounting solution (50% glycerol (v/v) in 1×PBS plus the nuclear stain Hoechst, (#33258; 1 ug/ml) was placed on the cells and covered with a coverslip.
6) The hybridization signal was observed under an Olympus BH10 microscope with fluorescent capabilities using a rhodamine derivative filters (excitation wavelength of 567 nm, emission wavelength of 584 nm).
The inclusion of DMSO in an in situ assay solution increased the permeation of the nucleic acid probes into the cells and gave hybridization signal in over 95% of the cells. In this Example, we show the effect of adding, in addition to DMSO, 10 percent (v/v) of an additional compound to the assay solution. The additional compounds added were: squalane (an aliphatic alkane), dodecyl alcohol (an alcohol), beta-cyclodextrin (a sugar), isopropyl palmitate (a fatty acid ester), 1,2, propanediol (an alcohol), pyrrolidinone (a lactam) and hexamethyldisiloxane (an organic silane).
In this Example, the hybridization cocktail consisted of nine volumes of HC-DMSO plus one volume of an additional compound. In the control sample, one volume of water was added instead of one volume of additional compound. As a result, in all samples, the concentration of DMSO in the cocktail was 9 percent (v/v).
The Slide In Situ Cell Preparation and Hybridization protocol was followed. The cells used were Hepg 2 cells. The probe used was an HYR probe specific for human Y chromosome α-satellite DNA repeated sequences; at its 5' end, via an Aminolink linker molecule, the probe was linked to a Texas Red moiety. A signal intensity of 4 was assigned to the slide in which the assay solution was HC plus 10% DMSO (control slide) and all other slides were rated 1, 2, 3 or 4 in comparison to the control slide, depending on whether the intensity was 1, 2, 3, or 4 times that of the control slide, respectively.
The results are an average of four independent experiments.

Hela cells = test: Liquid in situ hybridization with flow cytometry, DMSO plus additional compound (Example 4), 28S RNA and NR probes; type: cell-based; details: for 28S RNA Probe, mean LFL1 / NR Probe, mean LFL1 / Ratio 28S RNA/NR (ratio of mean LFL1): 10% additional compound with 9% DMSO; for 28S RNA Probe, mean LFL1: FITC 28S RNA probe, water control 6.070, average of four experiments; for NR Probe, mean LFL1: FITC NR probe (non-specific binding and autofluorescence), water control 0.137; for Ratio 28S RNA/NR (ratio of mean LFL1): water control 44; for Signal brightness compared to nine percent DMSO alone: additional compound in combination with nine percent DMSO; for Signal intensity after precipitation (biphasic mixture): 10 percent compound with 9% DMSO
Text: (§1) A Coulter Profile II flow cytometer was used for flow cytometry. With FITC as the probe dye, the filter for LFL3 was a 635 nm long pass filter and the filter for LFL1 was a 540 bp filter; the excitation wavelength was 488 nm. PMT1 and PMT3 settings were adjusted as required. A typical useful setting when fluorescein is the dye moiety is to have a PMT1 setting of 1100, a PMT3 setting of 900, and color compensation (PMT1, PMT3) of 15 percent.
(§2) Liquid in Situ Cell Preparation and Hybridization Protocol
(§3) 1. Cells were fixed in solution F, then resuspended in 2x SSC.
(§4) 2. The cells were spun out of solution and resuspended in an assay solution (consisting of the hybridization cocktail HC alone or in combination with a compound or compounds being tested as an enhancer.)
(§5) 3. After 30 min. at 42° C., the cells were washed in wash solution #1 preheated to 42° C. by centrifuging them out of the assay solution.
(§6) 4. Cells were next washed in wash solution #2 preheated to 42° C.
(§7) 5. Cells were resuspended in a 1X PBS solution containing 0.002% trypan blue as a counterstain.
(§8) 6. Cells were run on a flow cytometer and a "Count vs. LFL1" histogram was generated. ("Count" refers to cell count.) This histogram was used as the basis for determining the mean LFL1.
The effect on probe signal intensity of adding, in addition to DMSO, additional compounds to the assay solution was determined in an in situ liquid hybridization assay. The data was analyzed by flow cytometry.
The Liquid In Situ Cell Preparation and Hybridization Protocol was followed. The cells used were Hela cells. The probes used were a 28S RNA probe (SEQ ID NO: 1) and an NR probe.
The 28S RNA probe (SEQ ID NO: 1) is a target-specific probe specific for ribosomal RNA fluorescence obtained with it represents the sum of fluorescence from target-bound probe, non-specifically bound probe and autofluorescence from cellular molecules. The NR probe (SEQ ID NO: 2) is specific for a plant nucleic acid sequence and, in the current Example, the fluorescence obtained with it represent the sum of fluorescence from non-specifically bound probe and autofluorescence.
(§9) In this experiment, the hybridization cocktail consisted of nine volumes of HC-DMSO plus one volume of additional compound. In the control sample, one volume of water replaced the one volume of additional compound. As a result, in all samples, the concentration of DMSO was 9 percent (v/v).
The ratio, 28S/NR, is the ratio of the mean LFL1 observed with the 28S RNA probe (SEQ ID NO: 1) to the mean LFL1 observed with the NR probe (SEQ ID NO: 2). The results in the "28S RNA probe" and "NR probe" columns give the mean LFL1 observed with the 28S RNA and NR probes, respectively (SEQ ID NO: 1 and SEQ ID NO: 2, respectively).

α-satellite DNA = test: Liquid in situ hybridization with flow cytometry, DMSO plus squalane plus additional compound (Example 5), α-satellite DNA and NR probes; type: cell-based; details: for NR Probe, mean LFL1: DMSO-only control 0.175; for α-SAT Probe, mean LFL1: DMSO-only control 3.829; for Ratio α-SAT/NR (ratio of mean LFL1): DMSO-only control 22; for Increase of DNA probe signal intensity compared to 9% DMSO alone: DMSO plus squalane plus the additional compound
Text: as §1, §2, §3, §4, §5, §6, §7, §8
The Liquid In Situ Cell Preparation and Hybridization Protocol was followed.
The "α-satellite" DNA probe is a target specific probe specific α-satellite DNA. Fluorescence obtained with it represents the sum of fluorescence from target-bound probe, non-specifically bound probe and autofluorescence from cellular molecules.
The effect of a combination of DMSO and squalane on the probe signal was measured as was that combination further enhanced with a third compound.
In this Example, in all but two cases, the hybridization cocktail consisted of 9 volumes of HC-DMSO, a half volume of squalane, and a half volume of an additional compound. In one case, the additional compound was replaced by water, so that the hybridization compound consisted of 9 volumes of HC-DMSO, a half volume of squalane, and a half volume of water. In the control sample, the cocktail consisted of nine volumes of HC-DMSO and one volume of water. As a result, in all samples, there was 9 percent DMSO (v/v). When present, squalane was present at 5 percent. When present, the additional compound was present at 5%.
The ratio, α-SAT/NR, is the ratio of the mean LFL1 for the α-satellite DNA probe ([…]) to the mean LFL1 for the NR probe.

[1] = tested on: Human female white blood cells (karyotype XX); test: Signal enhancers in the mounting solution after in situ hybridization (Example 6), HXR probes, fluorescent microscope; type: cell-based; details: one volume compound plus 9 volumes mounting solution; rhodamine HXR probes; water control = 1
Description: After the in situ hybridization step, the cells were washed and then modified mounting solution was added and cells were observed under the microscope for fluorescence signal. Modified mounting solution was 9 volumes of mounting solution and one volume of additional compound, which was the compound being tested for its ability to be a signal enhancer. Mounting solution consisted of 0.1% 1,4 diphenylamine (antifade) in 50% glycerol (v/v), and nuclear stain Hoechst (#33258; 1 ug/ml).
Human female white blood cells (karyotype XX) were hybridized at 85° C. for 15 minutes with female chromosome HXR probes labelled with a rhodamine fluor. Cells were washed with wash buffers #1 and #2, and then suspended in a modified mounting solution. The additional compound in the modified mounting solution was varied; as a control, water was used as the additional compound. The signal intensity was observed under the fluorescent microscope.

[2] = Precipitation of additional compound from the hybridization cocktail (Example 4); type: physicochemical; details: 10 percent in hybridization cocktail (HC-DMSO)
Text: as §9

[3] = 5% additional compound with 5% squalane and 9% DMSO
[4] = 5% squalane with 9% DMSO, water instead of additional compound

Row | Precipitation from solution [2] | Compound | Fluorescent signal (Scale of 1 to 4) (Hepg 2 cells) | 28S RNA Probe, mean LFL1 (Hela cells) | NR Probe, mean LFL1 (Hela cells) | Ratio 28S RNA/NR (ratio of mean LFL1) (Hela cells) | Signal brightness compared to nine percent DMSO alone (Hela cells) | NR Probe, mean LFL1 (α-satellite DNA; [3]) | α-SAT Probe, mean LFL1 (α-satellite DNA; [3]) | Ratio α-SAT/NR (ratio of mean LFL1) (α-satellite DNA; [3]) | Increase of DNA probe signal intensity compared to 9% DMSO alone (α-satellite DNA) | Signal Intensity Scale of 1 to 4 [1] | Signal intensity after precipitation (biphasic mixture) (Hela cells) | NR Probe, mean LFL1 (α-satellite DNA; [4]) | α-SAT Probe, mean LFL1 (α-satellite DNA; [4]) | Ratio α-SAT/NR (ratio of mean LFL1) (α-satellite DNA; [4]) | Increase of DNA probe signal intensity compared to DMSO alone (α-satellite DNA; squalane plus DMSO) [fold]
1 |  | CC(O)CO (stereo not drawn) [1,2-propanediol] | 2 | 8.227 | 0.148 | 56 | increased the signal brightness | 0.151 | 5.876 | 39 | 1,8 fold | 4 |  |  |  |  | 
2 |  | O=C1CCCN1 [2-pyrrolidinone] | 2 | 10.19 | 0.133 | 77 | increased the signal brightness | 0.135 | 10.38 | 77 | 3.5 fold | 3 |  |  |  |  | 
3 |  | OC[C@H]1O[C@@H]2O[C@H]3[C@H](O)[C@@H](O)[C@@H](O[C@H]4[C@H](O)[C@@H](O)[C@@H](O[C@H]5[C@H](O)[C@@H](O)[C@@H](O[C@H]6[C@H](O)[C@@H](O)[C@@H](O[C@H]7[C@H](O)[C@@H](O)[C@@H](O[C@H]8[C@H](O)[C@@H](O)[C@@H](O[C@H]1[C@H](O)[C@H]2O)O[C@@H]8CO)O[C@@H]7CO)O[C@@H]6CO)O[C@@H]5CO)O[C@@H]4CO)O[C@@H]3CO [beta-cyclodextrin] | 1.5 | 9.593 | 0.135 | 71 | increased the signal brightness | 0.131 | 3.720 | 29 |  |  |  |  |  |  | 
4 |  | C[Si](C)(C)O[Si](C)(C)C [hexamethyldisiloxane] | 1 | 7.426 | 0.126 | 59 | increased the signal brightness |  |  |  |  | 2 |  |  |  |  | 
5 |  | CCCCCCCCCCCCCCCC(=O)OC(C)C [isopropyl palmitate] | 1.5 | 8.057 | 0.140 | 58 | increased the signal brightness | 0.117 | 5.988 | 52 | 2.4 fold | 4 |  |  |  |  | 
6 |  | CCCCCCCC/C=C\CCCCCCCC(=O)O [oleic acid] | 2 | 3.643 | 0.142 | 26 |  |  |  |  |  |  |  |  |  |  | 
7 | precipitation from solution | CCCCCCCC/C=C\CCCCCCCCO [oleyl alcohol] | 1.5 | 0.731 | 0.136 |  |  |  |  |  |  | 3 | markedly decreased |  |  |  | 
8 | precipitation from solution | CC(C)CCCC(C)CCCC(C)CCCCC(C)CCCC(C)CCCC(C)C (stereo not drawn) [squalane] | 2 | 0.611 | 0.123 |  |  |  |  |  |  | 3 | markedly decreased | 0.125 | 4.604 | 37 | 1.68
9 |  | CC(C)=CCC/C(C)=C/CC/C(C)=C/CC/C=C(\C)CC/C=C(\C)CCC=C(C)C [squalene] |  |  |  |  |  |  |  |  |  | 3 |  |  |  |  | 
10 |  | hydroxypropylcyclodextrin |  |  |  |  |  |  |  |  |  | 2 |  |  |  |  | 
